Results from paper PMC4928820 (Molecular Pharmaceutics, 2015).

Columns and labels:
[1] = water-saturated tricaprylin compared to dry tricaprylin ref 34; cited from earlier work
[2] = assay type: physicochemical; conditions: 37 °C, mean ± SD, triplicate; for Thermodynamic solubility in Carbitol: cosolvent; for Thermodynamic solubility in Maisine 35-1: long-chain mono-; for Thermodynamic solubility in Maisine 35-1 / Thermodynamic solubility in Capmul MCM EP: di-, triglyceride; for Thermodynamic solubility in Capmul MCM EP: medium-chain mono-; for Thermodynamic solubility in Cremophor EL: surfactant (≤3% w/w water)

## CNC(=O)c1ccccc1 [N-methylbenzamide]
[1]
  Increase of solubility: more than 50%

## CC(C)(Oc1ccc(C(=O)c2ccc(Cl)cc2)cc1)C(=O)O [fenofibric acid]
[2]
  Thermodynamic solubility in Carbitol: 92.8 ± 4.81 mg/g
  Thermodynamic solubility in Maisine 35-1: 7.38 ± 0.22 mg/g
  Thermodynamic solubility in Capmul MCM EP: 14.5 ± 0.50 mg/g
  Thermodynamic solubility in Cremophor EL: 58.4 ± 2.59 mg/g

## CC(C)(Oc1ccc(CCNC(=O)c2ccc(Cl)cc2)cc1)C(=O)O [bezafibrate]
[2]
  Thermodynamic solubility in Carbitol: 43.0 ± 1.83 mg/g
  Thermodynamic solubility in Maisine 35-1: 1.55 ± 0.05 mg/g
  Thermodynamic solubility in Capmul MCM EP: 6.36 ± 0.26 mg/g
  Thermodynamic solubility in Cremophor EL: 37.9 ± 5.23 mg/g
